≈ marks a conversion by molar mass, not a printed value.
Experiments:
Type in all cases: functional
[1] = tested on: Staphylococcus aureus; assay: Antibacterial activity against Staphylococcus aureus MTCC 96 assessed as growth inhibition after 24 hr by agar streak dilution method; settings: MTCC 96, 24 h
[2] = tested on: Escherichia coli; assay: Antibacterial activity against Escherichia coli MTCC 739 assessed as growth inhibition after 24 hr by agar streak dilution method; settings: MTCC 739, 24 h
[3] = tested on: Mycobacterium tuberculosis; assay: Antimycobacterial activity against Mycobacterium tuberculosis H37Rv assessed as growth inhibition at MIC after 12 to 28 days by Lowenstein and Jensen agar dilution method
[4] = tested on: Aspergillus fumigatus; assay: Antifungal activity against Aspergillus fumigatus MTCC 343 assessed as growth inhibition at 3.12 to 50 ug/mL after 24 hr by agar disk diffusion method
[5] = tested on: Shigella flexneri; assay: Antibacterial activity against Shigella flexneri MTCC 1457 assessed as growth inhibition at 3.12 to 50 ug/mL after 24 hr by agar disk diffusion method
[6] = tested on: Mycobacterium tuberculosis; assay: Antimycobacterial activity against Mycobacterium tuberculosis H37Rv assessed as growth inhibition measured within 10 days by BACTEC MGIT method; settings: 240 h
[7] = tested on: Proteus vulgaris; assay: Antibacterial activity against Proteus vulgaris MTCC 1771 assessed as growth inhibition at 3.12 to 50 ug/mL after 24 hr by agar disk diffusion method
[8] = tested on: Candida albicans; assay: Antifungal activity against Candida albicans MTCC 183 assessed as growth inhibition after 48 hr by agar streak dilution method; settings: MTCC 183, 48 h
[9] = tested on: Pseudomonas aeruginosa; assay: Antibacterial activity against Pseudomonas aeruginosa MTCC 741 assessed as growth inhibition at 3.12 to 50 ug/mL after 24 hr by agar disk diffusion method
[10] = tested on: Salmonella typhi; assay: Antibacterial activity against Salmonella enterica subsp. enterica serovar Typhi MTCC 733 assessed as growth inhibition after 24 hr by agar streak dilution method; settings: MTCC 733, 24 h
[11] = tested on: Aspergillus niger; assay: Antifungal activity against Aspergillus niger MTCC 282 assessed as growth inhibition at 3.12 to 50 ug/mL after 24 hr by agar disk diffusion method
[12] = tested on: Pseudomonas aeruginosa; assay: Antibacterial activity against Pseudomonas aeruginosa MTCC 741 assessed as growth inhibition after 24 hr by agar streak dilution method; settings: MTCC 741, 24 h
[13] = tested on: Aspergillus clavatus; assay: Antifungal activity against Aspergillus clavatus MTCC 1323 assessed as growth inhibition after 48 hr by agar streak dilution method; settings: MTCC 1323, 48 h
[14] = tested on: Klebsiella pneumoniae; assay: Antibacterial activity against Klebsiella pneumoniae MTCC 109 assessed as growth inhibition at 3.12 to 50 ug/mL after 24 hr by agar disk diffusion method
[15] = tested on: Bacillus cereus; assay: Antibacterial activity against Bacillus cereus MTCC 430 assessed as growth inhibition at 3.12 to 50 ug/mL after 24 hr by agar disk diffusion method
[16] = tested on: Shigella flexneri; assay: Antibacterial activity against Shigella flexneri MTCC 1457 assessed as growth inhibition after 24 hr by agar streak dilution method; settings: MTCC 1457, 24 h
[17] = tested on: Klebsiella pneumoniae; assay: Antibacterial activity against Klebsiella pneumoniae MTCC 109 assessed as growth inhibition after 24 hr by agar streak dilution method; settings: MTCC 109, 24 h
[18] = tested on: Aspergillus clavatus; assay: Antifungal activity against Aspergillus clavatus MTCC 1323 assessed as growth inhibition at 3.12 to 50 ug/mL after 24 hr by agar disk diffusion method
[19] = tested on: Proteus vulgaris; assay: Antibacterial activity against Proteus vulgaris MTCC 1771 assessed as growth inhibition after 24 hr by agar streak dilution method; settings: MTCC 1771, 24 h
[20] = tested on: Aspergillus niger; assay: Antifungal activity against Aspergillus niger MTCC 282 assessed as growth inhibition after 48 hr by agar streak dilution method; settings: MTCC 282, 48 h
[21] = tested on: Staphylococcus aureus; assay: Antibacterial activity against Staphylococcus aureus MTCC 96 assessed as growth inhibition at 3.12 to 50 ug/mL after 24 hr by agar disk diffusion method
[22] = tested on: Bacillus cereus; assay: Antibacterial activity against Bacillus cereus MTCC 430 assessed as growth inhibition after 24 hr by agar streak dilution method; settings: MTCC 430, 24 h
[23] = tested on: Aspergillus fumigatus; assay: Antifungal activity against Aspergillus fumigatus MTCC 343 assessed as growth inhibition after 48 hr by agar streak dilution method; settings: MTCC 343, 48 h
[24] = tested on: Salmonella typhi; assay: Antibacterial activity against Salmonella enterica subsp. enterica serovar Typhi MTCC 733 assessed as growth inhibition at 3.12 to 50 ug/mL after 24 hr by agar disk diffusion method
[25] = tested on: Mycobacterium tuberculosis; assay: Antimycobacterial activity against Mycobacterium tuberculosis H37Rv assessed as growth inhibition after 12 to 28 days by Lowenstein and Jensen agar dilution method
[26] = tested on: Escherichia coli; assay: Antibacterial activity against Escherichia coli MTCC 739 assessed as growth inhibition at 3.12 to 50 ug/mL after 24 hr by agar disk diffusion method
[27] = tested on: Candida albicans; assay: Antifungal activity against Candida albicans MTCC 183 assessed as growth inhibition at 3.12 to 50 ug/mL after 24 hr by agar disk diffusion method

SMILES	MIC [1] [µg/mL]	MIC [2] [µg/mL]	growth inhibition (GI) [3] [%]	inhibition zone (IZ) [4] [mm]	inhibition zone (IZ) [5] [mm]	MIC [6] [µg/mL]	inhibition zone (IZ) [7] [mm]	MIC [8] [µg/mL]	inhibition zone (IZ) [9] [mm]	MIC [10] [µg/mL]	inhibition zone (IZ) [11] [mm]	MIC [12] [µg/mL]	MIC [13] [µg/mL]	inhibition zone (IZ) [14] [mm]	inhibition zone (IZ) [15] [mm]	MIC [16] [µg/mL]	MIC [17] [µg/mL]	inhibition zone (IZ) [18] [mm]	MIC [19] [µg/mL]	MIC [20] [µg/mL]	other results
CC1CC(C)CN(c2nc(-c3ccc(NCC(=O)Nc4nc5ccccc5s4)cc3)nc(N3CC(C)CC(C)C3)n2)C1 (stereo unspecified)	50 (≈ 85.5 µM)	50 (≈ 85.5 µM)	94	<10	<10	> 6.25	18	> 50	16	50 (≈ 85.5 µM)	<10	50 (≈ 85.5 µM)	> 50	<10	14	50 (≈ 85.5 µM)	50 (≈ 85.5 µM)	<10	50 (≈ 85.5 µM)	50 (≈ 85.5 µM)	inhibition zone (IZ) [21]: 16 mm; MIC [22]: 50 µg/mL (≈ 85.5 µM); MIC [23]: > 50 µg/mL; inhibition zone (IZ) [24]: 12 mm; MIC [25]: 500 µg/mL (≈ 855 µM); inhibition zone (IZ) [26]: 14 mm; inhibition zone (IZ) [27]: <10 mm
CC1CC(C)CN(c2nc(-c3ccc(NCC(=O)Nc4nc5ccc(Br)cc5s4)cc3)nc(N3CC(C)CC(C)C3)n2)C1 (stereo unspecified)	1.56 (≈ 2.35 µM)	12.5 (≈ 18.8 µM)	99	19	25	> 6.25	23	50 (≈ 75.3 µM)	25	6.25 (≈ 9.42 µM)	19	25 (≈ 37.7 µM)	50 (≈ 75.3 µM)	11	26	12.5 (≈ 18.8 µM)	50 (≈ 75.3 µM)	26	25 (≈ 37.7 µM)	50 (≈ 75.3 µM)	inhibition zone (IZ) [21]: 25 mm; MIC [22]: 6.25 µg/mL (≈ 9.42 µM); MIC [23]: 50 µg/mL (≈ 75.3 µM); inhibition zone (IZ) [24]: 24 mm; MIC [25]: 12.5 µg/mL (≈ 18.8 µM); inhibition zone (IZ) [26]: 23 mm; inhibition zone (IZ) [27]: 18 mm
CC1CC(C)CN(c2nc(-c3ccc(NCC(=O)Nc4ccc(C#N)cc4)cc3)nc(N3CC(C)CC(C)C3)n2)C1 (stereo unspecified)	12.5 (≈ 22.6 µM)	25 (≈ 45.2 µM)	96	11	15	> 6.25	19	> 50	21	50 (≈ 90.5 µM)	<10	50 (≈ 90.5 µM)	> 50	28	19	50 (≈ 90.5 µM)	12.5 (≈ 22.6 µM)	<10	50 (≈ 90.5 µM)	50 (≈ 90.5 µM)	inhibition zone (IZ) [21]: 19 mm; MIC [22]: 50 µg/mL (≈ 90.5 µM); MIC [23]: 50 µg/mL (≈ 90.5 µM); inhibition zone (IZ) [24]: 20 mm; MIC [25]: 62.5 µg/mL (≈ 113 µM); inhibition zone (IZ) [26]: 20 mm; inhibition zone (IZ) [27]: <10 mm

From ChEMBL document CHEMBL3046161, “Synthesis of potential antitubercular and antimicrobial s-triazine-based scaffolds via Suzuki cross-coupling reaction” (2013)
